Patent publication US20220168312A1, “MULTICOMPONENT CRYSTAL FORMULATIONS” (UNIVERSITY OF LIMERICK, priority 2019, published 2022)

Experiments:
[1] = Tensile stress test of tablets; assay type: physicochemical
Method: Hardness testing was performed immediately after tableting using a Pharma Test hardness tester. Each compaction force was tested in triplicate. Tensile strength was calculated according to the Equation 1 where F is the load required to fracture the tablet, D the table diameter and H the tablet height: Tensile strength=2F/πDH Equation 1: […]

[2] = cited from earlier work
[3] = assay type: physicochemical
Method: Stability testing: Accelerated stability testing was conducted by taking 100 mg of powdered sample and placing it into a humidity chamber under 75% relative humidity at 40° C. for 14 days. The samples were analysed before and after testing by PXRD, FT-IR, DSC and TGA.

Thermal analysis (TGA) = assay type: physicochemical; details: 10° C./min, nitrogen
Method: Thermal Analysis: Thermogravimetric analysis (TGA) was performed using a TA Instruments TGA-Q50 on at a constant rate of 10° C./min from 25° C. to 350° C. under a flux of nitrogen of 50 ml/min. Differential Scanning Calorimetry (DSC) was carried out using sealed aluminium pans on a TA instruments DSC-Q2000 differential scanning calorimeter. Temperature calibrations were made using indium as the standard. An empty pan, sealed in the same way as the sample, was used as a reference. All the thermograms were run at a heating/cooling rate of 10° C./min under a nitrogen purge at a rate of 50 ml/min.

[4] = assay type: physicochemical; remark: listed apart in the source
Method: The product was recovered by filtration and dried in air.
Powder X-ray diffraction (PXRD): X-ray powder diffraction (XRPD) patterns were collected in Bragg-Brentano geometry on a PANalytical Empyrean diffractometer equipped with a sealed tube (Cu Kα12, λ=1.5418 Å) an 1D X'Celerator detector between 4 and 40° 2θ.

[5] = assay type: physicochemical; details: intrinsic dissolution of compacts, 37° C., relative to pure LAM
Method: These compacts were each coated with paraffin wax, leaving one surface exposed and secured to the bottom of the dissolution apparatus with excess paraffin wax. Intrinsic solubility was determined using a 900 ml well filled with 900 ml of degassed, deionised water (or 0.1 M HCl solution) on a Pharma Test USP type II system. The solution had been previously equilibrated at 37° C. and the paddle speed was set to 100 rpm after adding the samples. Aliquots of media were withdrawn at 5, 10, 15, 20 30 and 60 minutes (or 0.25, 0.5, 1, 3, 6, 12 and 24 hours), filtered through 0.45 μm PTFE filters and tested via a UV spectrometer in triplicate.
UV-Vis absorbance measurements were carried on a Cary 60 UV-Vis spectrometer using 1 ml quartz cuvettes.

Row | Compound | tablet hardness / tensile strength ([1]; tablets obtained with a compaction weight lower than 400 kg) | half-life ([2]; in vivo) | oral bioavailability ([2]; orally) | crystallinity after accelerated stability test (PXRD) [3] | product degradation after accelerated stability test (FT-IR and DSC) [3] | thermally stable up to (thermogravimetric analysis) (Thermal analysis (TGA)) | tensile strength compared with LAM ([1]; across a range of compaction forces) | stability as a slurry in water (PXRD) [4] | intrinsic dissolution, faster than pure LAM [5]
1 | Nc1nnc(-c2cccc(Cl)c2Cl)c(N)n1 [LAM, lamotrigine] | too brittle to enable hardness testing | rather short half-life | 90% |  |  |  |  |  | 
2 | lamotrigine:valproic acid (1:2) ionic cocrystal [LAMVAL] |  |  |  | remains crystalline | no sign of product degradation | around 100 °C | significantly greater tensile strength | stable as a slurry in water | 2 ×
